This is an account of results in article PMC11833279, “Versatile Features of an Antibody Mimetic Peptide and Its Variants” (Journal of Peptide Science, 2025).

As usually defined, the IC50 is the concentration that inhibits the measured activity by half. For orientation: EC50 means the midpoint of the concentration-response curve.

Experiment [1] deals with HIV‐1NL4–3. The following applies: HIV‐1 neutralization; read-out: HIV‐1 neutralizing activity IC50; cited from earlier work. From the text:
Addressing the significance of the disulfide bridge in H1H3, a linear variant (H1H3s) was generated, in which the two cysteine residues were replaced by serine (see Table 1 for peptide sequences).

For experiment [2], the system named is HIV‐1NL4–3. It counts as cell-based. The following applies: CEMx174 SEAP indicator cells, HIV‐1NL4–3, SEAP activity three days after infection; mean and standard error of at least three independent experiments; read-out: HIV‐1 neutralizing activity IC50. How it is done:
The plasmid HIV‐1pBRNL4–3, kindly provided by F. Kirchhoff, Ulm, was propagated in XL‐1 Blue competent cells (Stratagene – an Agilent Technologies Division, Waldbronn, Germany) and transfected into 293 T cells using FuGENE HD (Roche, Mannheim, Germany). After 48 h, supernatants were cleared by filtering through 0.22 μm Millex‐GS units (Millipore, Schwalbach, Germany) and stored in aliquots at −80°C.
The indicator cell line CEMx174, which was kindly provided by R. E. Means and R. C. Desrosiers, contained the gene for the secreted alkaline phosphatase (SEAP) under the control of the simian immunodeficiency virus long terminal repeat. Three days after HIV‐1NL4–3 infection, cell culture supernatants were removed and analyzed for SEAP activity using the Phospha‐Light kit (Life Technologies, Darmstadt, Germany) according to the manufacturer's recommendations. Data represent mean and standard error of at least three independently performed experiments.

Experiment [3] concerns GALV‐RV. The class given is cell-based. The following applies: read-out: GALV‐RV transduction enhancing effect EC50; Jurkat cells, GFP‐expressing GALV‐RV, peptide‐virus mix incubated 10 min, GFP by flow cytometry 2 days posttransduction; three independent experiments ± SD. The procedure:
For the generation of GFP‐expressing γ‐retroviral vector pseudotyped with the glycoprotein of gibbon ape leukemia virus (GALV‐RV), 800,000 HEK293T cells were initially seeded and cotransfected as previously described using following plasmids:GFP‐expressing Murine leukemia virus (MLV) vector E200 pcmE26‐gfp (1.15 μg), E848 pCsGPpA‐ed (0.95 μg), and GALV glycoprotein (0.4 μg).
For the determination of transduction enhancement of GFP‐expressing GALV‐RV, 50,000 Jurkat cells (ATCC, TIB‐152) were seeded in 180 μL RPMI medium (Gibco, 11875093) supplemented with 10% inactivated fetal calf serum (FCS, Gibco, 10437028), 2 mM L‐glutamine (PAN‐Biotech, P04–80050), 100 U/mL penicillin, and 100 μg/mL streptomycin (PAN‐Biotech, P06–07050). Different concentrations of peptides were 1:1 (v/v) mixed with GALV‐RV (1280 dilution on cells) and incubated for 10 min. Subsequently, 20 μL of the virus‐peptide mix was added to cells, and 2 days posttransduction, GFP‐expression was analyzed by flow cytometry using CytoFlex (Beckmann Coulter), and the evaluation was carried out with FlowJo™ (Version 10.8.1).

Like-named read-outs stand apart in the source and are kept apart here. Non-standard residues stand in square brackets, D forms with d. Residues, ends and D or L forms follow the SMILES beside them. *: point of attachment. Biotin = O=C1N[C@H]2[C@H](CS[C@H]2CCCCC(=O)*)N1; Ahx = NCCCCCC(=O)O; βAla = NCCC(=O)O

As for “Ac‐GYRFSNFVIHW‐GB ^b GX ^c G‐K*‐GX‐[CVGPYSWDDSPQDNYMDC]‐NH2 (disulfide) [Peptide H1H3, b12 paratope mimetic peptide presenting heavy chain CDRs H1 and H3, H3 disulfide‐bridged, biotinylated lysine between them]”, the IC50 in experiment [1] is 1700 nM.
Turning to `CC[C@H](C)[C@H](NC(=O)[C@@H](NC(=O)[C@H](Cc1ccccc1)NC(=O)[C@H](CC(N)=O)NC(=O)[C@H](CO)NC(=O)[C@H](Cc1ccccc1)NC(=O)[C@H](CCCNC(=N)N)NC(=O)[C@H](Cc1ccc(O)cc1)NC(=O)CNC(C)=O)C(C)C)C(=O)N[C@@H](Cc1c[nH]cn1)C(=O)N[C@@H](Cc1c[nH]c2ccccc12)C(=O)NCC(=O)NCCC(=O)NCC(=O)NCCCCCC(=O)NCC(=O)N[C@@H](CCCCNC(=O)CCCC[C@@H]1SC[C@@H]2NC(=O)N[C@@H]21)C(=O)NCC(=O)NCCCCCC(=O)N[C@@H](CO)C(=O)N[C@H](C(=O)NCC(=O)N1CCC[C@H]1C(=O)N[C@@H](Cc1ccc(O)cc1)C(=O)N[C@@H](CO)C(=O)N[C@@H](Cc1c[nH]c2ccccc12)C(=O)N[C@@H](CC(=O)O)C(=O)N[C@@H](CC(=O)O)C(=O)N[C@@H](CO)C(=O)N1CCC[C@H]1C(=O)N[C@@H](CCC(N)=O)C(=O)N[C@@H](CC(=O)O)C(=O)N[C@@H](CC(N)=O)C(=O)N[C@@H](Cc1ccc(O)cc1)C(=O)N[C@@H](CCSC)C(=O)N[C@@H](CC(=O)O)C(=O)N[C@@H](CO)C(N)=O)C(C)C` [Peptide H1H3s] (Ac-GYRFSNFVIHWG[βAla]G[Ahx]GK(Biotin)G[Ahx]SVGPYSWDDSPQDNYMDS-NH2), the IC50 in experiment [2] was 6300 ± 100 nM.
The same measure, in the same setting: then `CC[C@@H](C)[C@@H](NC(=O)[C@H](NC(=O)[C@@H](Cc1ccccc1)NC(=O)[C@@H](CC(N)=O)NC(=O)[C@@H](CO)NC(=O)[C@@H](Cc1ccccc1)NC(=O)[C@@H](CCCNC(=N)N)NC(=O)[C@@H](Cc1ccc(O)cc1)NC(=O)CNC(C)=O)C(C)C)C(=O)N[C@H](Cc1c[nH]cn1)C(=O)N[C@H](Cc1c[nH]c2ccccc12)C(=O)NCC(=O)NCCC(=O)NCC(=O)NCCCCCC(=O)NCC(=O)N[C@H](CCCCNC(=O)CCCC[C@@H]1SC[C@@H]2NC(=O)N[C@@H]21)C(=O)NCC(=O)NCCCCCC(=O)N[C@H](CO)C(=O)N[C@@H](C(=O)NCC(=O)N1CCC[C@@H]1C(=O)N[C@H](Cc1ccc(O)cc1)C(=O)N[C@H](CO)C(=O)N[C@H](Cc1c[nH]c2ccccc12)C(=O)N[C@H](CC(=O)O)C(=O)N[C@H](CC(=O)O)C(=O)N[C@H](CO)C(=O)N1CCC[C@@H]1C(=O)N[C@H](CCC(N)=O)C(=O)N[C@H](CC(=O)O)C(=O)N[C@H](CC(N)=O)C(=O)N[C@H](Cc1ccc(O)cc1)C(=O)N[C@H](CCSC)C(=O)N[C@H](CC(=O)O)C(=O)N[C@H](CO)C(N)=O)C(C)C` [H1H3s‐allD] (Ac-G[dY][dR][dF][dS][dN][dF][dV][dI][dH][dW]G[βAla]G[Ahx]G[dK](Biotin)G[Ahx][dS][dV]G[dP][dY][dS][dW][dD][dD][dS][dP][dQ][dD][dN][dY][dM][dD][dS]-NH2), with 1900 ± 400 nM; and `CC[C@H](C)[C@H](NC(=O)[C@H](NC(=O)[C@H](Cc1ccccc1)NC(=O)[C@@H](CC(N)=O)NC(=O)[C@H](CO)NC(=O)[C@@H](Cc1ccccc1)NC(=O)[C@H](CCCNC(=N)N)NC(=O)[C@@H](Cc1ccc(O)cc1)NC(=O)CNC(C)=O)C(C)C)C(=O)N[C@H](Cc1c[nH]cn1)C(=O)N[C@@H](Cc1c[nH]c2ccccc12)C(=O)NCC(=O)NCCC(=O)NCC(=O)NCCCCCC(=O)NCC(=O)N[C@@H](CCCCNC(=O)CCCC[C@@H]1SC[C@@H]2NC(=O)N[C@@H]21)C(=O)NCC(=O)NCCCCCC(=O)N[C@H](CO)C(=O)N[C@@H](C(=O)NCC(=O)N1CCC[C@@H]1C(=O)N[C@@H](Cc1ccc(O)cc1)C(=O)N[C@H](CO)C(=O)N[C@@H](Cc1c[nH]c2ccccc12)C(=O)N[C@H](CC(=O)O)C(=O)N[C@@H](CC(=O)O)C(=O)N[C@H](CO)C(=O)N1CCC[C@H]1C(=O)N[C@H](CCC(N)=O)C(=O)N[C@@H](CC(=O)O)C(=O)N[C@H](CC(N)=O)C(=O)N[C@@H](Cc1ccc(O)cc1)C(=O)N[C@H](CCSC)C(=O)N[C@@H](CC(=O)O)C(=O)N[C@H](CO)C(N)=O)C(C)C` [H1H3s‐L/D] (Ac-G[dY]R[dF]S[dN]F[dV]I[dH]WG[βAla]G[Ahx]GK(Biotin)G[Ahx][dS][dV]G[dP]Y[dS]W[dD]D[dS]P[dQ]D[dN]Y[dM]D[dS]-NH2), with greater than 60000 nM.
Consider `CC[C@H](C)[C@H](NC(=O)[C@@H](NC(=O)[C@H](Cc1ccccc1)NC(=O)[C@H](CC(N)=O)NC(=O)[C@H](CO)NC(=O)[C@H](Cc1ccccc1)NC(=O)[C@H](CCCNC(=N)N)NC(=O)[C@H](Cc1ccc(O)cc1)NC(=O)CNC(C)=O)C(C)C)C(=O)N[C@@H](Cc1c[nH]cn1)C(=O)N[C@@H](Cc1c[nH]c2ccccc12)C(=O)NCC(=O)NCCC(=O)NCC(=O)NCCCCCC(=O)NCC(=O)N[C@@H](CCCCNC(=O)CCCC[C@@H]1SC[C@@H]2NC(=O)N[C@@H]21)C(=O)NCC(=O)NCCCCCC(=O)N[C@@H](CO)C(=O)N[C@H](C(=O)NCC(=O)N1CCC[C@H]1C(=O)N[C@@H](Cc1ccc(O)cc1)C(=O)N[C@@H](CO)C(=O)N[C@@H](Cc1c[nH]c2ccccc12)C(=O)N[C@@H](CC(=O)O)C(=O)N[C@@H](CCCCN)C(=O)N[C@@H](CO)C(=O)N1CCC[C@H]1C(=O)N[C@@H](CCC(N)=O)C(=O)N[C@@H](CC(=O)O)C(=O)N[C@@H](CC(N)=O)C(=O)N[C@@H](Cc1ccc(O)cc1)C(=O)N[C@@H](CCSC)C(=O)N[C@@H](CC(=O)O)C(=O)N[C@@H](CO)C(N)=O)C(C)C` [H1H3s‐D100^bK] (Ac-GYRFSNFVIHWG[βAla]G[Ahx]GK(Biotin)G[Ahx]SVGPYSWDKSPQDNYMDS-NH2), for which, in experiment [3], the concentration for a half-maximal effect (EC50) stood at 630 ± 40 nM.
